Measurements as given in patent US20250326785A1, “SODIUM SALT AND ETHANOLAMINE SALT OF 23-HYDROXYTORMENTIC ACID” (HUYABIO International, LLC, priority 2024, published 2025).
Where two headings read alike, the source gives them in different places.

What was measured:
[1] = Dynamic vapor sorption (DVS) analysis; assay type: physicochemical
Description: GC analysis indicated residual solvent contents of 2847 ppm methanol; and 27 ppm TBME. […] No residual methanol or TBME was detected due to signal over-lap. […] TG-DSC analysis indicated two weight losses. The first weight loss of 2.3 wt. % was observed between 20-170° C. […] In the DSC thermogram, three endothermic events were observed (FIG. 17I). […] FT-IR (FIG. 17J) and Raman spectra (FIG. 17K) were recorded for reference. […] XRPD pattern of the ethanolamine salt was retained post-DVS (FIG. 17N). […] However, at the end of the experiment the solids on the microscope slide had discolored (FIG. 17O).

[2] = Hydration study in methanol/water aw 0.1, 0.5 and 0.9; assay type: physicochemical
Text: Hydration studies of ethanolamine salt.

[3] = Salt disproportionation study (slurry in water, XRPD of solids, pH of mother liquor); assay type: physicochemical
Description: The pH of the filtered mother liquor was 9.77.
Salt disproportionation studies of ethanolamine salt. […] The pH of the filtered mother liquor was 8.65.
Method: 40 mg of sodium salt of HBI-3808 having a XRPD of Pattern 2, was weighed into a 2 mL push cap vial and a stirrer bar added. 0.2 mL of water was added to the vial and the experiment was stirred for ca. 24 h at 25° C. After 24 h the slurry was filtered by centrifuge filtration and the recovered solids were analyzed by XRPD. The pH of the filtered mother liquor was measured.

[4] = for HPLC Conc.: 24 h, starting concentration 100 mg/mL; for HPLC Conc. / HPLC Conc./: based on free acid
Text: pH-dependent solubility of the HBI- 3808 sodium salt of Pattern 2 was studied.
pH dependent solubility of the HBI- 3808 sodium salt of Pattern 5 was studied.

[5] = Stability study at 25° C./60% RH, 40° C./75% RH and 60° C. (XRPD, HPLC purity, impurity tracking); details: for XRPD: * = crystalline salt; for HPLC: based on free acid
Text: Stability of HBI-3808 Sodium Salt Pattern 2 was studied over 13 weeks.
Table 2F presents impurity tracking results from a 13-week stability study of HBI-3808 sodium salt of Pattern 2. […]

[6] = 25° C./60% RH (open vial), 13 Weeks
[7] = 25° C./60% RH (open vial), 1 Week
[8] = 25° C./60% RH (open vial), 2 Weeks
[9] = 25° C./60% RH (open vial), 4 Weeks
[10] = 25° C./60% RH (open vial), 8 Weeks
[11] = 40° C./75% RH (open vial), 1 Week
[12] = 40° C./75% RH (open vial), 2 Weeks

In the case of C[C@@H]1CC[C@]2(C(=O)O)CC[C@]3(C)C(=CC[C@@H]4[C@@]5(C)C[C@@H](O)[C@H](O)[C@@](C)(CO)[C@@H]5CC[C@]43C)[C@@H]2[C@]1(C)O.NCCO [ethanolamine salt of HBI-3808, ETHANOLAMINE SALT OF 23-HYDROXYTORMENTIC ACID], the “XRPD of recovered material post-DVS” value [1] is reported as “retained”, the “water (mass) uptake” value ([1]; at 80% RH/25° C. (Pattern 2: second DVS cycle)) is reported as 3.0 wt. % and the hygroscopicity ([1]; from water uptake at 80% RH, 25° C.) is reported as “slightly hygroscopic”. For the same molecule, the “XRPD of solids recovered at the end of the experiment” value [2] was “consistent with ethanolamine salt”, the “pH of the filtered mother liquor” value [3] was 8.65 and the “XRPD of recovered solids” value ([3]; ca. 24 h at 25° C.) was “no salt disproportionation had occurred”. The “XRPD of recovered solids” value ([4]; FaSSGF) was “consistent with ethanolamine salt”, the “final Measured pH” value ([4]; FaSSGF) was 8.62 and the “HPLC Conc.” value ([4]; FaSSGF, final pH 8.62) was 57.2 mg/mL. The “XRPD pattern of recovered solids” value ([4]; FaSSGF, *** = crystalline salt) was 1***, the “HPLC Conc./” value ([4]; FaSSGF) was 57.2 mg/mL and the concentration ([4]; pH 1.2) was under 1000 ng/mL. For the same molecule, the “XRPD of recovered solids” value ([4]; target pH 1.2) was “Amorphous solids”, the “HPLC Conc.” value ([4]; target pH 1.2 buffer) was under 0.001 mg/mL and the “XRPD of recovered solids” value ([4]; target pH 3.0) was “consistent with HBI-3808 free acid of Pattern 1”. For the same molecule, the “HPLC Conc.” value ([4]; target pH 3.0 buffer) was under 0.001 mg/mL, the “XRPD pattern of recovered solids” value ([4]; target pH 3.0 buffer, ** = free acid) was 1** and the “XRPD of recovered solids” value ([4]; target pH 4.0) was “consistent with HBI-3808 free acid of Pattern 1”. The “HPLC Conc.” value ([4]; target pH 4.0 buffer) was under 0.001 mg/mL, the “XRPD pattern of recovered solids” value ([4]; target pH 4.0 buffer, ** = free acid) was 1** and the “XRPD of recovered solids” value ([4]; target pH 6.8) was “Amorphous solids”. For the same molecule, the “HPLC Conc.” value ([4]; target pH 6.8 buffer) was 0.5 mg/mL, the “HPLC Conc./” value ([4]; target pH 6.8 phosphate buffer) was 0.5 mg/mL and the “XRPD of recovered solids” value ([4]; target pH 8.0) was “Amorphous solids”. For the same molecule, the “HPLC Conc.” value ([4]; target pH 8.0 buffer) was 17.7 mg/mL, the “HPLC Conc./” value ([4]; target pH 8.0 phosphate buffer) was 17.7 mg/mL and the HPLC/ % area [5, 6] was 97.4 % area. The XRPD [5, 7] was 1*, the HPLC [5, 7] was 97.3 % area and the XRPD [5, 8] was 1*. For the same molecule, the HPLC [5, 8] was 97.3 % area, the XRPD [5, 9] was 1* and the HPLC [5, 9] was 97.5 % area. For the same molecule, the XRPD [5, 10] was 1*, the HPLC [5, 10] was 97.0 % area and the XRPD [5, 6] was 1*. The HPLC [5, 6] was 97.3 % area, the “RRT 0.801 impurity” value ([5]; 25° C./60% RH, 1 week) was 0.10 % area and the “RRT 0.970 impurity” value ([5]; 25° C./60% RH, 1 week) was 0.10 % area. The “RRT 1.000 (HBI-3808)” value ([5]; 25° C./60% RH, 1 week) was 97.31 % area, the “RRT 1.025 (Isomer of HBI-3808)” value ([5]; 25° C./60% RH, 1 week) was 2.48 % area and the “Total Impurities” value ([5]; 25° C./60% RH, 1 week) was 2.69 % area. For the same molecule, the “RRT 0.970 impurity” value ([5]; 25° C./60% RH, 2 weeks) was 0.12 % area, the “RRT 1.000 (HBI-3808)” value ([5]; 25° C./60% RH, 2 weeks) was 97.29 % area and the “RRT 1.025 (Isomer of HBI-3808)” value ([5]; 25° C./60% RH, 2 weeks) was 2.39 % area. The “RRT 1.935 impurity” value ([5]; 25° C./60% RH, 2 weeks) was 0.20 % area, the “Total Impurities” value ([5]; 25° C./60% RH, 2 weeks) was 2.71 % area and the “RRT 0.970 impurity” value ([5]; 25° C./60% RH, 4 weeks) was 0.11 % area. For the same molecule, the “RRT 1.000 (HBI-3808)” value ([5]; 25° C./60% RH, 4 weeks) was 97.47 % area, the “RRT 1.025 (Isomer of HBI-3808)” value ([5]; 25° C./60% RH, 4 weeks) was 2.41 % area and the “Total Impurities” value ([5]; 25° C./60% RH, 4 weeks) was 2.53 % area. For the same molecule, the “RRT 0.970 impurity” value ([5]; 25° C./60% RH, 8 weeks) was 0.10 % area, the “RRT 1.000 (HBI-3808)” value ([5]; 25° C./60% RH, 8 weeks) was 96.99 % area and the “RRT 1.025 (Isomer of HBI-3808)” value ([5]; 25° C./60% RH, 8 weeks) was 2.51 % area. The “RRT 1.767 impurity” value ([5]; 25° C./60% RH, 8 weeks) was 0.29 % area, the “Total Impurities” value ([5]; 25° C./60% RH, 8 weeks) was 3.01 % area and the “RRT 0.801 impurity” value ([5]; 25° C./60% RH, 13 weeks) was 0.12 % area. For the same molecule, the “RRT 1.000 (HBI-3808)” value ([5]; 25° C./60% RH, 13 weeks) was 97.33 % area, the “RRT 1.025 (Isomer of HBI-3808)” value ([5]; 25° C./60% RH, 13 weeks) was 2.37 % area and the “RRT 1.935 impurity” value ([5]; 25° C./60% RH, 13 weeks) was 0.19 % area. The “Total Impurities” value ([5]; 25° C./60% RH, 13 weeks) was 2.67 % area, the “RRT 1.000 (HBI-3808)” value ([5]; 25° C./60% RH, T = 0) was 97.82 % area and the “RRT 1.025 (Isomer of HBI-3808)” value ([5]; 25° C./60% RH, T = 0) was 2.18 % area. For the same molecule, the “Total Impurities” value ([5]; 25° C./60% RH, T = 0) was 2.18 % area, the HPLC/ % area ([5]; 40° C./75% RH (open vial), 13 Weeks) was 97.4 % area and the XRPD [5, 11] was 1*. The HPLC [5, 11] was 97.3 % area, the XRPD [5, 12] was 1* and the HPLC [5, 12] was 97.3 % area.
